# Target: T1, His-hSHIP1 enzyme (Homo sapiens, UniProt Q92835)
# T1 sequence (Q92835 1-1189): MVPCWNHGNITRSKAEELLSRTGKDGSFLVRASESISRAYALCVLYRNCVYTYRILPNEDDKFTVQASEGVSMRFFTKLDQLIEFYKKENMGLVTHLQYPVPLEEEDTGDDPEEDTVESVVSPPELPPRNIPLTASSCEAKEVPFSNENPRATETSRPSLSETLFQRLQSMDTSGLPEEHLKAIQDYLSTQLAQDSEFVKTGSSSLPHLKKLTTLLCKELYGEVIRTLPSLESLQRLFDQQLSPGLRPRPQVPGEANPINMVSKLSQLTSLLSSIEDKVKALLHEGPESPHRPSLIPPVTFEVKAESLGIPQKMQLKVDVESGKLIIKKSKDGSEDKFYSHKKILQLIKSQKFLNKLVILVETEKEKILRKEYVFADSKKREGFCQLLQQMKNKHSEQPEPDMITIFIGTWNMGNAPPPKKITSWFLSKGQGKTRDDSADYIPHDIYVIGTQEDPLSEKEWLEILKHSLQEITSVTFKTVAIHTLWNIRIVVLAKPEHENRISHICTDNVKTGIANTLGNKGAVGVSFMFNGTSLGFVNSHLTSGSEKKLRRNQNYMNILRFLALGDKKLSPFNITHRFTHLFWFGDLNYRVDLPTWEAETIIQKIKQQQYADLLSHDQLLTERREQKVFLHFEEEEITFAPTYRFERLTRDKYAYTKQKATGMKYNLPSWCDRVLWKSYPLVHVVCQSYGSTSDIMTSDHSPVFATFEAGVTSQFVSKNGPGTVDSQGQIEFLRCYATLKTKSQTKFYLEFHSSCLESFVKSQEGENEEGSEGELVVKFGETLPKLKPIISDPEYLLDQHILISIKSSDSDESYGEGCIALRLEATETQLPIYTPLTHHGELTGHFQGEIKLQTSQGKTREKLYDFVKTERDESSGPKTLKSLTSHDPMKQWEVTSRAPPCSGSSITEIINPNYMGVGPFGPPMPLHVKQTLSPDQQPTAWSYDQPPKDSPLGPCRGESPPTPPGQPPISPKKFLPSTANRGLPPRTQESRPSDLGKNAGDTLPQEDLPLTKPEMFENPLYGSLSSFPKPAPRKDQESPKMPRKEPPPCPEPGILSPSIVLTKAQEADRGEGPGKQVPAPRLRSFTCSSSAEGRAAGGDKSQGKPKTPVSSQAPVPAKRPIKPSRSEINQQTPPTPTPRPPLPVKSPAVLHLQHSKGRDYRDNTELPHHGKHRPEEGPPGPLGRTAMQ
# Test: His-hSHIP1 phosphatase activity assay (IP4 substrate, Biomol Green)
# Assay type: biochemical
# Details: percentage increase relative to background; concentrations ≦300 μM
# Protocol: Test compounds were dissolved in 95% ethanol to form stock solutions. Before screening, the stock solutions were diluted with Phosphatase Assay Buffer (20 mM Tris-HCL, 10 mM MgCl2 pH 7.5, 0.02% Tween 20) to form working assay solutions that contained 10% ethanol. The assay was carried out on 96-well microtiter plates using a modified procedure of that reported by Ong et al., Blood 110, 1942-1949, 2007 and Yang et al., Org Lett 7, 1073-1076, 2005, both of which references are incorporated herein by reference in their entirety.
# Each reaction contained 5 μL of His-hSHIP1 enzyme (15-20 ng), 10 μL of the substrate, 1,3,4,5-inositol tetrakisphosphate (IP4; 50 μM final), 5 μL of Phosphatase Assay Buffer, and 5 μL of test compound at various concentrations in 10% ethanol (0-300 μM final). Control blanks were also prepared by replacing His-hSHIP1 enzyme, IP4, or test compounds with Phosphatase Assay Buffer. After adding the reaction components in a 96-well microtiter plate on ice, the reaction was mixed by briefly shaking the plate vigorously. The reaction was then incubated at 37° C. for 15 min with gentle shaking followed by addition of 100 μL of Biomol Green Reagent (BIOMOL, PA, USA) to terminate the reaction. The free phosphate released from IP4 by His-hSHIP1 bound to the Biomol Green Reagent, turning the solution green in colour. After incubating the mixture for 20 min at room temperature for colour development, the absorbance was read with a SpectraMax Plus 96-well plate reader (Molecular Devices, Sunnyvale, Calif., USA) at a wavelength of 650 nm.
# Percent (%) activation in Table 2 is expressed as a percentage increase relative to background. Scoring is expressed as follows: + (<50%); ++ (≧50% but <65%); +++ (≧65%).
compound,measurement,value
"COC(=O)c1cc(C(=O)O)cc2c1[C@]1(C)CC[C@H]3C(C)(C)CCC[C@]3(C)[C@H]1CS2(=O)=O [compound 84, (1R,10R,11S,16S)-3-(methoxycarbonyl)-1,11,15,15-tetramethyl-8,8-dioxo-8λ^6-thiatetracyclo[8.8.0.0^2,7.0^11,16]octadeca-2,4,6-triene-5-carboxylic acid]",Scoring: percent (%) activation of His-hSHIP1 enzyme,+ (<50%)
"CONC(=O)c1cc(O)c2c(c1)S(=O)(=O)C[C@@H]1[C@@]3(C)CCCC(C)(C)[C@@H]3CC[C@@]21C [compound 96, (1R,10R,11S,16S)-3-hydroxy-N-methoxy-1,11,15,15-tetramethyl-8,8-dioxo-8λ^6-thiatetracyclo[8.8.0.0^2,7.0^11,16]octadeca-2,4,6-triene-5-carboxamide]",Scoring: percent (%) activation of His-hSHIP1 enzyme,+ (<50%)
"COc1cc(C(=O)O)cc2c1[C@]1(C)CC[C@H]3C(C)(C)CCC[C@]3(C)[C@H]1CS2(=O)=O [compound 80, (1R,10R,11S,16S)-3-methoxy-1,11,15,15-tetramethyl-8,8-dioxo-8λ^6-thiatetracyclo[8.8.0.0^2,7.0^11,16]octadeca-2,4,6-triene-5-carboxylic acid]",Scoring: percent (%) activation of His-hSHIP1 enzyme,+ (<50%)
"CC1(C)CCC[C@]2(C)[C@H]3CS(=O)(=O)c4cc(O)cc(C(=O)N5CCNCC5)c4[C@]3(C)CC[C@@H]12 [compound 100, (1R,10R,11S,16S)-5-hydroxy-1,11,15,15-tetramethyl-3-[(piperazin-1-yl)carbonyl]-8λ^6-thiatetracyclo[8.8.0.0^2,7.0^11,16]octadeca-2,4,6-triene-8,8-dione]",Scoring: percent (%) activation of His-hSHIP1 enzyme,+ (<50%)
"CC1(C)CCC[C@]2(C)[C@H]3C[S+]([O-])c4cc(O)cc(O)c4[C@]3(C)CC[C@@H]12 (stereo partly drawn) [Compound No. 27, (1R,10R,11S,16S)-3,5-dihydroxy-1,11,15,15-tetramethyl-8-thiatetracyclo[8.8.0.0^2,7.0^11,16]octadeca-2,4,6-trien-8-one]",Scoring: percent (%) activation of His-hSHIP1 enzyme,++ (≧50% but <65%)
"CC1(C)CCC[C@]2(C)[C@H]3CS(=O)(=O)c4cc(O)cc(C(=O)N5CCOCC5)c4[C@]3(C)CC[C@@H]12 [compound 88, (1R,10R,11S,16S)-5-hydroxy-1,11,15,15-tetramethyl-3-[(morpholin-4-yl)carbonyl]-8λ^6-thiatetracyclo-[8.8.0.0^2,7.0^11,16]octadeca-2,4,6-triene-8,8-dione]",Scoring: percent (%) activation of His-hSHIP1 enzyme,+ (<50%)
"CN1CCN(C(=O)c2cc(O)cc3c2[C@]2(C)CC[C@H]4C(C)(C)CCC[C@]4(C)[C@H]2CS3(=O)=O)CC1 [compound 94, (1R,10R,11S,16S)-5-hydroxy-1,11,15,15-tetramethyl-3-[(4-methylpiperazin-1-yl)carbonyl]-8λ^6-thiatetracyclo[8.8.0.0^2,7.0^11,16]octadeca-2,4,6-triene-8,8-dione]",Scoring: percent (%) activation of His-hSHIP1 enzyme,+ (<50%)
"COc1cc(O)cc2c1[C@]1(C)CC[C@H]3C(C)(C)CCC[C@]3(C)[C@H]1CS2 [Compound No. 25, (1R,10R,11S,16S)-3-methoxy-1,11,15,15-tetramethyl-8-thiatetracyclo[8.8.0.0^2,7.0^11,16]octadeca-2,4,6-trien-5-ol]",Scoring: percent (%) activation of His-hSHIP1 enzyme,++ (≧50% but <65%)
"CC1(C)CCC[C@]2(C)[C@H]3CSc4cc(O)cc(O)c4[C@]3(C)CC[C@@H]12 [Compound No. 26, (1R,10R,11S,16S)-1,11,15,15-tetramethyl-8-thiatetracyclo[8.8.0.0^2,7.0^11,16]octadeca-2,4,6-triene-3,5-diol]",Scoring: percent (%) activation of His-hSHIP1 enzyme,+ (<50%)
"COc1cc(O)c2c(c1)SC[C@@H]1[C@@]3(C)CCCC(C)(C)[C@@H]3CC[C@@]21C [Compound No. 29, (1R,10R,11S,16S)-5-methoxy-1,11,15,15-tetramethyl-8-thiatetracyclo[8.8.0.0^2,7.0^11,16]octadeca-2,4,6-trien-3-ol]",Scoring: percent (%) activation of His-hSHIP1 enzyme,++ (≧50% but <65%)
"COc1cc(C)cc2c1[C@]1(C)CC[C@H]3C(C)(C)CCC[C@]3(C)[C@H]1CS2 [Compound No. 14, (1R,10R,11S,16S)-3-methoxy-1,5,11,15,15-pentamethyl-8-thiatetracyclo[8.8.0.0^2,7.0^11,16]octadeca-2,4,6-triene]",Scoring: percent (%) activation of His-hSHIP1 enzyme,+ (<50%)
"CC1(C)CCC[C@]2(C)[C@H]3CS(=O)(=O)c4cc(O)cc(C(=O)O)c4[C@]3(C)CC[C@@H]12 [compound 65, (1R,10R,11S,16S)-5-hydroxy-1,11,15,15-tetramethyl-8,8-dioxo-8λ^6-thiatetracyclo[8.8.0.0^2,7.0^11,16]octadeca-2,4,6-triene-3-carboxylic acid]",Scoring: percent (%) activation of His-hSHIP1 enzyme,++ (≧50% but <65%)
"COc1cc(C)c2c(c1)OC[C@@H]1[C@@]3(C)CCCC(C)(C)[C@@H]3CC[C@@]21C [Compound No. 5, (1R,10R,11S,16S)-5-methoxy-1,3,11,15,15-pentamethyl-8-oxatetracyclo[8.8.0.0^2,7.0^11,16]octadeca-2,4,6-triene]",Scoring: percent (%) activation of His-hSHIP1 enzyme,++ (≧50% but <65%)
"CC1(C)CCC[C@]2(C)[C@H]3CS(=O)(=O)c4cc(C(=O)NCC(=O)O)cc(O)c4[C@]3(C)CC[C@@H]12 [compound 93, 2-{[(1R,10R,11S,16S)-3-hydroxy-1,11,15,15-tetramethyl-8,8-dioxo-8λ^6-thiatetracyclo[8.8.0.0^2,7.0^11,16]octadeca-2,4,6-trien-5-yl]formamido}acetic acid]",Scoring: percent (%) activation of His-hSHIP1 enzyme,+ (<50%)
"COC(=O)CNC(=O)c1cc(O)cc2c1[C@]1(C)CC[C@H]3C(C)(C)CCC[C@]3(C)[C@H]1CS2(=O)=O [compound 90, methyl 2-{[(1R,10R,11S,16S)-5-hydroxy-1,11,15,15-tetramethyl-8,8-dioxo-8λ^6-thiatetracyclo[8.8.0.0^2,7.0^11,16]octadeca-2,4,6-trien-3-yl]formamido}acetate]",Scoring: percent (%) activation of His-hSHIP1 enzyme,+ (<50%)
"CC1(C)CCC[C@]2(C)[C@H]3CS(=O)(=O)c4cc(C(=O)O)cc(C(=O)O)c4[C@]3(C)CC[C@@H]12 [compound 85, (1R,10R,11S,16S)-1,11,15,15-tetramethyl-8,8-dioxo-8λ^6-thiatetracyclo[8.8.0.0^2,7.0^11,16]octadeca-2,4,6-triene-3,5-dicarboxylic acid]",Scoring: percent (%) activation of His-hSHIP1 enzyme,+ (<50%)
"COc1cc(OC)c2c(c1)S(=O)(=O)C[C@@H]1[C@@]3(C)CCCC(C)(C)[C@@H]3CC[C@@]21C [Compound No. 23, (1R,10R,11S,16S)-3,5-dimethoxy-1,11,15,15-tetramethyl-8-thiatetracyclo[8.8.0.0^2,7.0^11,16]octadeca-2,4,6-triene-8,8-dione]",Scoring: percent (%) activation of His-hSHIP1 enzyme,+++ (≧65%)
"Cc1cc(O)c2c(c1)S(=O)(=O)C[C@@H]1[C@@]3(C)CCCC(C)(C)[C@@H]3CC[C@@]21C [Compound No. 16, (1R,10R,11S,16S)-3-hydroxy-1,5,11,15,15-pentamethyl-8-thiatetracyclo[8.8.0.0^2,7.0^11,16]octadeca-2,4,6-triene-8,8-dione]",Scoring: percent (%) activation of His-hSHIP1 enzyme,+++ (≧65%)

# Reference: patent US8101605B2, “SHIP1 modulators and methods related thereto” (Aquinox Pharmaceuticals Inc., priority 2009, dated 2012)
